Data taken from patent US9969858B2, “Metalloinsertor conjugates” (CALIFORNIA INSTITUTE OF TECHNOLOGY, priority 2015, dated 2018).

Test system: duplex DNA containing a CC mismatch
Assay: Photocleavage of mismatched DNA upon irradiation (competition titration)
Assay type: biochemical
Conditions: 340-440 nm irradiation
Description: For [RhPt] Conjugate, a single-stranded DNA oligomer with the sequence [NT]. ID NO: 2) (underline denotes the mismatch) was labeled at the 5'-end with [^32P]-ATP and polynucleotide kinase (PNK) at 37° C. for 1 h. The radiolabeled DNA was purified by gel electrophoresis and annealed to its mismatched complement (containing a CC mismatch) by heating to 90° C. in buffer (100 mM NaCl, 20 mM NaPi, pH 7.1), followed by slow cooling to ambient temperature over 3 h, to give a final concentration of 2 μM duplex DNA. Racemic solutions of the metal complex (containing all stereoisomers) were prepared in Milli-Q water over a range of concentrations (100 nM-50 μM). For each sample, 4 μM […] (5 μl), which photocleaves DNA at mismatched sites, 2 μM annealed mismatched duplex DNA (10 μl), and the non-photocleaving competitor complex at various concentrations (5 μl) were combined to give 1 μM […] and 1 μM duplex DNA as the final concentrations. […] The amounts of DNA in each band were analyzed by autoradiography and quantitated by phosphorimagery (ImageQuant) (FIG. 20). […] To assess the binding of the rhodium subunit of RhPt at the CC mismatch, the fraction of cleaved DNA was quantified and expressed as a percentage of the total DNA in each lane and plotted against the log of the concentration of RhPt. […]

Substance | photocleavage of DNA upon irradiation
[Rh(chrysi)(HDPA)(Amal)Pt(DACH]^3+ [RhPt] | does not photocleave DNA
rac-[Rh(bpy)2chrysi]Cl3 [rac-[Rh(bpy)2chrysi]3+] | does photocleave DNA at mismatched sites
